From PubChem BioAssay (NCI) come the findings set out here.

Several values for one entry are separate records, joined by “and”; a condition that tells them apart may be missing. Identical values can stand only once.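 Results reflect a 48-hour exposure of cells in 96-well plates to compound at five concentrations. The concentration for 50% growth inhibition is given as GI50. The concentration for full growth arrest is given as TGI.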 Bounds are passed on as bounds.

Some test systems named below: DU-145 prostate; HCT-116 colon; HL-60(TB) leukemia; K-562 leukemia; NCI-H226 lung; NCI-H23 lung; PC-3 prostate; SR leukemia; UACC-257 melanoma; UACC-62 melanoma.
Holding throughout (test): inhibition of tumour cell growth, NCI panel, 48 h

Consider `CC[C@@]1(O)C(=O)OCc2c1cc1n(c2=O)Cc2cc3c(Cl)c4c(cc3nc2-1)OCO4`, for which the GI50 with DU-145 prostate was below 0.001 µM; in the assay with HCT-116 colon it was 1.1 µM; with HL-60(TB) leukemia it was below 0.001 µM; in the assay with K-562 leukemia, below 0.001 µM; with NCI-H226 lung, below 0.001 µM; with NCI-H23 lung it was below 0.001 µM. The GI50 in the assay with SR leukemia was below 0.001 µM; in the assay on UACC-257 melanoma it was 0.156 µM and 0.312 µM; in the assay on UACC-62 melanoma, below 0.001 µM. For the same compound, the TGI was above 100 µM with DU-145 prostate; above 100 µM in the assay with HCT-116 colon; 0.00518 µM and 0.0164 µM with HL-60(TB) leukemia; above 100 µM with K-562 leukemia; 0.0701 µM with NCI-H226 lung; above 100 µM in the assay with PC-3 prostate. Besides, the TGI in the assay on UACC-257 melanoma is 3.64 µM and 1.92 µM; in the assay on UACC-62 melanoma, 0.337 µM and 0.544 µM.
With `Cc1ccc(-n2nnc3c(sc4ccccc43)c2=O)cc1`, the GI50 in the assay on DU-145 prostate was 7.41 µM; in the assay on HCT-116 colon, 3.1 µM; in the assay on HL-60(TB) leukemia, above 100 µM; in the assay with K-562 leukemia it was above 100 µM; with NCI-H226 lung it was 9.55 µM; in the assay on NCI-H23 lung it was 42.8 µM. The GI50 in the assay on PC-3 prostate was 7.73 µM; in the assay with SR leukemia, above 100 µM; in the assay with UACC-257 melanoma it was above 100 µM; with UACC-62 melanoma it was 51.7 µM. The TGI in the assay on DU-145 prostate, in the assay with HCT-116 colon, in the assay with HL-60(TB) leukemia, in the assay on K-562 leukemia, in the assay on NCI-H226 lung and with NCI-H23 lung was above 100 µM in each case. Also, the TGI with PC-3 prostate, in the assay on SR leukemia, with UACC-257 melanoma and in the assay with UACC-62 melanoma was above 100 µM in each case.
Regarding `CCOC(=O)c1c(C(F)(F)F)n([O-])c2ccc(Cl)cc2[n+]1=O`, the GI50 was 1.93 µM in the assay with DU-145 prostate; 1.86 µM in the assay with HCT-116 colon; 1.93 µM in the assay on HL-60(TB) leukemia; 2.2 µM in the assay on K-562 leukemia; 2.13 µM in the assay on NCI-H226 lung; 1.71 µM in the assay with NCI-H23 lung. In addition, the GI50 in the assay with PC-3 prostate is 1.45 µM; in the assay with SR leukemia it was 1.55 µM; in the assay on UACC-257 melanoma, 2.19 µM; in the assay on UACC-62 melanoma, 1.72 µM. In addition, the TGI was 3.5 µM in the assay with DU-145 prostate; 3.43 µM in the assay on HCT-116 colon; 4.07 µM with HL-60(TB) leukemia; 4.37 µM with K-562 leukemia; 5.78 µM in the assay with NCI-H226 lung; 3.43 µM with NCI-H23 lung. In addition, the TGI came to 3.02 µM in the assay with PC-3 prostate, 4.35 µM in the assay on SR leukemia, 4.7 µM with UACC-257 melanoma and 3.71 µM with UACC-62 melanoma.
Take `Cc1ccc(-c2c3c(N)nc(-c4ccncc4)nc3nc3c2c(C)nn3-c2ccccc2)cc1`: the GI50 was 5.08 µM in the assay with DU-145 prostate; 2.95 µM in the assay on HCT-116 colon; above 37.5 µM in the assay with HL-60(TB) leukemia; 5 µM with K-562 leukemia; 14 µM in the assay with NCI-H226 lung; 21.6 µM in the assay on NCI-H23 lung. Besides, the GI50 is 32.3 µM in the assay with PC-3 prostate, 7.09 µM in the assay on SR leukemia, 13.3 µM with UACC-257 melanoma and 13.8 µM with UACC-62 melanoma. In addition, the TGI with DU-145 prostate was 20.7 µM; in the assay on HCT-116 colon it was 11.1 µM; in the assay with HL-60(TB) leukemia, above 37.5 µM; in the assay on K-562 leukemia it was above 37.5 µM; in the assay with NCI-H226 lung, above 37.5 µM; in the assay on NCI-H23 lung it was above 37.5 µM. The TGI with PC-3 prostate is above 37.5 µM; with SR leukemia, 23.8 µM; with UACC-257 melanoma, above 37.5 µM; in the assay with UACC-62 melanoma it was above 37.5 µM.
Turning to `N#Cc1ccc(N2Cc3cc(Cl)ccc3OC3=C2C(=O)N(Cc2ccc(F)cc2)C3=O)cc1`, the GI50 in the assay with DU-145 prostate was 0.662 µM; in the assay on HCT-116 colon, 0.275 µM; in the assay on HL-60(TB) leukemia, 0.23 µM; in the assay on K-562 leukemia, 0.313 µM; in the assay on NCI-H226 lung, 1.62 µM; in the assay on NCI-H23 lung, 0.811 µM. Further, the GI50 is 0.8 µM with PC-3 prostate, 0.275 µM in the assay with SR leukemia, 0.556 µM in the assay with UACC-257 melanoma and 0.537 µM with UACC-62 melanoma. For the same compound, the TGI was 1.45 µM in the assay with DU-145 prostate; 0.934 µM with HCT-116 colon; 0.469 µM in the assay on HL-60(TB) leukemia; 1.68 µM in the assay on K-562 leukemia; 3.75 µM in the assay with NCI-H226 lung; 2.7 µM with NCI-H23 lung. Moreover, the TGI in the assay with PC-3 prostate worked out at 2.5 µM; with SR leukemia, 1.12 µM; with UACC-257 melanoma, 1.15 µM; in the assay with UACC-62 melanoma, 1.13 µM.
Turning to `CCc1ccc(Oc2nccc(-c3c(-c4ccc(F)cc4)ncn3C3CCNCC3)n2)cc1`, the GI50 was 5.83 µM in the assay with DU-145 prostate; 5.84 µM with HCT-116 colon; 5.78 µM in the assay on HL-60(TB) leukemia; 4.64 µM with K-562 leukemia; 6.81 µM with NCI-H226 lung; 10.7 µM with NCI-H23 lung. The GI50 was 5.33 µM in the assay on PC-3 prostate, 7.25 µM in the assay with SR leukemia, 4.34 µM with UACC-257 melanoma and 4.6 µM with UACC-62 melanoma. In addition, the TGI was determined as 14 µM in the assay with DU-145 prostate; 13.9 µM in the assay on HCT-116 colon; 11.5 µM in the assay with HL-60(TB) leukemia; 10.9 µM in the assay with K-562 leukemia; 16.3 µM with NCI-H226 lung; 15.1 µM with NCI-H23 lung. Further, the TGI in the assay on PC-3 prostate was found to be 14.1 µM; in the assay on SR leukemia it was 18.1 µM; in the assay on UACC-257 melanoma, 8.04 µM; with UACC-62 melanoma it was 9.08 µM.
With `COc1ccc(Oc2nc(Nc3ccc(N4CCOCC4)cc3)ncc2NC(=O)Nc2cc(OC)cc(OC)c2)cc1`, the GI50 is 1.66 µM in the assay with DU-145 prostate; 1.14 µM with HCT-116 colon; 10.8 µM in the assay with HL-60(TB) leukemia; 4.66 µM with K-562 leukemia; 3.84 µM in the assay with NCI-H226 lung; 2.69 µM in the assay on NCI-H23 lung. For the same compound, the GI50 in the assay on PC-3 prostate is 2.39 µM; in the assay with SR leukemia it was 6.76 µM; in the assay on UACC-257 melanoma, 5.47 µM; with UACC-62 melanoma, 1.99 µM. The TGI is 7.59 µM in the assay on DU-145 prostate; 3.27 µM in the assay with HCT-116 colon; above 33.3 µM with HL-60(TB) leukemia; above 33.3 µM in the assay with K-562 leukemia; 11.8 µM in the assay on NCI-H226 lung; 23.4 µM in the assay on NCI-H23 lung. The TGI in the assay on PC-3 prostate was 14.2 µM; in the assay on SR leukemia, above 33.3 µM; in the assay on UACC-257 melanoma, 23.8 µM; in the assay with UACC-62 melanoma, 7.41 µM.
